From US20120107323A1, “KINASE PROTEIN BINDING INHIBITORS” (University of Florida, priority 2009, published 2012)

System: Panc-1 orthotopic xenografts
Assay: Orthotopic pancreatic xenograft, Panc-1
Type: in vivo, mice
Set-up: dose or concentration left out as unconfirmed
Settings: Panc-1, 21 days
Text: For the orthotopic model of pancreatic cancer, the University of Florida IACUC approved the following protocol (IACUC Study #2000801506). The pancreatic cancer cell lines, Mia paca-2 and Panc-1 cells were stably transfected using luciferase-RFP (red fluorescent protein) reporter gene for in vivo imaging of the xenografts. Following expansion and sorting of RFP positive cells, cells were expanded in culture and 5×10^6 tumor cells were implanted into the pancreas of 20 mice. For intra-pancreatic implantation of cells, mice were anesthetized with Isoflurane using the ACS provided and maintained rodent anesthesia machine. Under sterille surgical conditions, via 1.0 cm incision of the skin, abdominal wall and peritonium, the spleen was retracted and cells were injected in […] into the tail of the pancreas using a 29-gauge needle. The abdominal wall and peritoneum was sutured using 5.0 absorbable surgical sutures and the skin was closed with medical glue (dermabond). Postoperative analgesia was 0.05 mg/kg of buprenorphine subcutaneously per 8-12 hours postoperatively.
Mice were hand restrained prior to intraperitoneal injections. Mice were euthanized 6 weeks after tumor innoculation and tumor and tissue collected. As described below, mice were imaged weekly with the IVIS lumina imager and tumor size was estimated by the bioluminescent signal. […]

With CSc1ncnc2c1ccn2C1O[C@H](COP(=O)(O)O)[C@@H](O)[C@H]1O (stereo partly drawn) [INT2-31, 4-(Methylthio)-7-(5-O-phosphono-D-ribofuranosyl)-{7H-Pyrrolo[2,3-d]pyrimidine}] the “growth of the orthotopic pancreatic xenografts” value was “sufficiently reduced the growth”.
